# Activity calls are given as the source filed them. The rule behind the calls is not given here.
# Tested on: GENE-TOX genotoxicity assays, various organisms and cells
# Experiment: GENE-TOX mutagenicity studies
# Details: for call: Assay Type: In vivo carcinogenicity studies, Assay Code: CCG+
# [1] = Species/Cell Type: Salmonella typhimurium (one or more of the five standard strains: TA98, TA100, TA1535, TA1537, and TA1538), Assay Type: Histidine reverse gene mutation, Ames assay, Assay Code: SAL+, Evaluation Type: Evaluation A (Pre-1980)
# [2] = Species/Cell Type: Mammalian polychromatic erythrocytes, Assay Type: Micronucleus test, chromosome aberrations, Assay Code: MNTT, Evaluation Type: Evaluation A (Pre-1980)
# [3] = Species/Cell Type: Salmonella typhimurium (one or more of the five standard strains: TA98, TA100, TA1535, TA1537, and TA1538), Assay Type: Histidine reverse gene mutation, Ames assay, Assay Code: SAL-, Evaluation Type: Evaluation A (Pre-1980)
# [4] = Species/Cell Type: Mammalian polychromatic erythrocytes, Assay Type: Micronucleus test, chromosome aberrations, Assay Code: MNT+U, Dose Response: Unconfirmed positive response, Evaluation Type: Evaluation B (Post-1980)
# [5] = Species/Cell Type: Nonhuman, Evaluation Type: Evaluation A (Pre-1980)
# [6] = Species/Cell Type: Salmonella typhimurium, Assay Type: Forward and reverse gene mutation, host-mediated assay, Assay Code: HMA-, Evaluation Type: Evaluation A (Pre-1980)
# [7] = Species/Cell Type: Human lymphocytes, Assay Type: Sister-chromatid exchange (SCE) in vivo, Assay Code: SCY+, Evaluation Type: Evaluation B (Post-1980)
# [8] = Species/Cell Type: Mammalian polychromatic erythrocytes, Assay Type: Micronucleus test, chromosome aberrations, Assay Code: MNTT, Evaluation Type: Evaluation B (Post-1980)
# [9] = Species/Cell Type: Bacillus subtilis (H17 vs M45), Assay Type: Rec-assay, spot test, DNA effects (bacterial DNA repair), Assay Code: REW-, Evaluation Type: Evaluation A (Pre-1980)
# [10] = Species/Cell Type: Salmonella typhimurium (one or more of the five standard strains: TA98, TA100, TA1535, TA1537, and TA1538), Assay Type: Histidine reverse gene mutation, Ames assay, Assay Code: SALT, Evaluation Type: Evaluation A (Pre-1980)
structure (smiles),measurement,setting,value
CS(=O)(=O)OCCCNCCCOS(C)(=O)=O,mutagenic call,[1],active; positive
O=C(NC(=O)c1c(F)cccc1F)Nc1ccc(Cl)cc1,mutagenic call,[2],no conclusion
same,mutagenic call,"Species/Cell Type: Mouse lymphoma (L5178Y) cells, Assay Type: Forward gene mutation at the thymidine kinase (TK) locus, chromosome aberrations, Assay Code: L51T, Evaluation Type: Evaluation A (Pre-1980)",no conclusion
same,mutagenic call,[3],inactive; negative
NNC(=O)NC(=O)NN,mutagenic call,"Species/Cell Type: Escherichia coli WP2, Assay Type: Tryptophan reverse gene mutation, Assay Code: WP2+, Evaluation Type: Evaluation A (Pre-1980)",active; positive
CCNC(=O)/C=C(C)/C=C/C=C(C)/C=C/c1c(C)cc(OC)c(C)c1C,mutagenic call,"Species/Cell Type: Mouse (C3H/10T1/2) cells, Assay Type: Cell transformation, Assay Code: CTH-, Evaluation Type: Evaluation A (Pre-1980)",inactive; negative
CC(N)=O,mutagenic call,"Species/Cell Type: Escherichia coli polA (W3110 vs P3478), Assay Type: Rec-assay, DNA effects (bacterial DNA repair), Assay Code: RE2-, Evaluation Type: Evaluation A (Pre-1980)",inactive; negative
same,mutagenic call,"Species/Cell Type: Escherichia coli polA (W3119 vs P3478), Assay Type: Rec-assay, DNA effects (bacterial DNA repair), Assay Code: RE1T, Evaluation Type: Evaluation A (Pre-1980)",no conclusion
same,mutagenic call,"Species/Cell Type: Fischer rat embryo (RLV/1706) cells, Assay Type: Cell transformation, viral enhanced, Assay Code: CTR+, Evaluation Type: Evaluation A (Pre-1980)",active; positive
same,mutagenic call,[4],active; positive
same,mutagenic call,"Species/Cell Type: Mouse embryo (AKR/ME) cells, Assay Type: Cell transformation, Assay Code: CTK+, Evaluation Type: Evaluation A (Pre-1980)",active; positive
same,mutagenic call,"Species/Cell Type: Mouse, Sex: Male, Assay Type: Sperm morphology, Assay Code: SPI-, Evaluation Type: Evaluation A (Pre-1980)",inactive; negative
same,call,[5],active; positive
same,mutagenic call,"Species/Cell Type: Saccharomyces cerevisiae, Assay Type: Mitotic recombination or gene conversion, Assay Code: YEH-, Evaluation Type: Evaluation A (Pre-1980)",inactive; negative
same,mutagenic call,[3],inactive; negative
same,mutagenic call,[6],inactive; negative
same,mutagenic call,"Species/Cell Type: Syrian hamster embryo (SHE) cells, Assay Type: Cell transformation, clonal assay, Assay Code: CTC+, Evaluation Type: Evaluation A (Pre-1980)",active; positive
O=S(=O)(O)c1ccc(N=Nc2ccc(O)c3ccccc23)cc1,mutagenic call,"Species/Cell Type: Bacillus subtilis (H17 vs M45), Assay Type: Rec-assay, spot test, DNA effects (bacterial DNA repair), Assay Code: REWT, Evaluation Type: Evaluation A (Pre-1980)",no conclusion
same,mutagenic call,"Species/Cell Type: Bacillus subtilis (H17 vs M45T), Assay Type: Rec-assay, spot test, DNA effects (bacterial DNA repair), Assay Code: REXT, Evaluation Type: Evaluation A (Pre-1980)",no conclusion
same,mutagenic call,[3],inactive; negative
[As],mutagenic call,[7],active; positive
Oc1ccc(Cl)c(O)c1,mutagenic call,[2],no conclusion
same,mutagenic call,"Species/Cell Type: Neurospora crassa, Assay Type: Aneuploidy, chromosome aberrations, Assay Code: NEN-, Evaluation Type: Evaluation A (Pre-1980)",inactive; negative
O=c1ccn([C@H]2C[C@H](O)[C@@H](COP(=O)(O)O)O2)c(=O)[nH]1,mutagenic call,"Species/Cell Type: Drosophila melanogaster, Assay Type: Sex-linked recessive lethal gene mutation, Assay Code: SRLT, Evaluation Type: Evaluation A (Pre-1980)",no conclusion
Clc1cccc(Br)c1,mutagenic call,[3],inactive; negative
NC(Cc1c[nH]c2ccccc12)C(=O)O (configuration not stated),mutagenic call,"Species/Cell Type: Human, Sex: Male, Assay Type: Sperm morphology, Assay Code: SPH-, Evaluation Type: Evaluation A (Pre-1980)",inactive; negative
O=[N+]([O-])c1cc(Cl)cc(Sc2cc(Cl)cc([N+](=O)[O-])c2O)c1O,mutagenic call,[8],no conclusion
CCN(CC)CCOc1ccc(C(=C(Cl)c2ccccc2)c2ccccc2)cc1,mutagenic call,"Species/Cell Type: Human, Sex: Male, Assay Type: Sperm morphology, Assay Code: SPHT, Evaluation Type: Evaluation A (Pre-1980)",no conclusion
same,mutagenic call,[8],no conclusion
COc1cc(=O)oc(/C=C/C=C/C=C/C(C)=C/[C@]2(C)O[C@H](C)[C@](C)(O)[C@H]2O)c1C,mutagenic call,[9],inactive; negative
O=[Se](O)O,mutagenic call,"Species/Cell Type: Bacillus subtilis (H17 vs M45), Assay Type: Rec-assay, spot test, DNA effects (bacterial DNA repair), Assay Code: REW+, Evaluation Type: Evaluation A (Pre-1980)",active; positive
same,mutagenic call,[9],inactive; negative
same,mutagenic call,"Species/Cell Type: Human lymphocytes, Assay Type: Sister-chromatid exchange (SCE) in vitro, Assay Code: SCL+D, Dose Response: With dose response, Evaluation Type: Evaluation A (Pre-1980)",active; positive
same,mutagenic call,[7],active; positive
same,mutagenic call,"Species/Cell Type: Human, Assay Type: Sister-chromatid exchange (SCE) in vitro, Assay Code: SC1+D, Dose Response: With dose response, Evaluation Type: Evaluation A (Pre-1980)",active; positive
same,mutagenic call,"Species/Cell Type: Nonhuman, Assay Type: Sister-chromatid exchange (SCE) in vitro, Assay Code: SC2+D, Dose Response: With dose response, Evaluation Type: Evaluation B (Post-1980)",active; positive
same,mutagenic call,"Species/Cell Type: Nonhuman, Assay Type: Sister-chromatid exchange (SCE) in vivo, Assay Code: SC3+D, Dose Response: With dose response, Evaluation Type: Evaluation B (Post-1980)",active; positive
same,mutagenic call,[1],active; positive
Cc1cc2c3c(ccc2c2ccccc12)C(=O)CC3,mutagenic call,[10],no conclusion
CS(=O)(=O)OC[C@H](O)[C@@H](O)COS(C)(=O)=O,mutagenic call,"Species/Cell Type: Allium cepa, Assay Type: Chromosome aberrations, Assay Code: ALC+D, Dose Response: With dose response, Evaluation Type: Evaluation A (Pre-1980)",active; positive
same,mutagenic call,"Species/Cell Type: Arabidopsis species, Assay Type: Gene mutation, Assay Code: ARM+, Evaluation Type: Evaluation A (Pre-1980)",active; positive
same,mutagenic call,"Species/Cell Type: Hordeum vulgare (barley), Assay Type: Chromosome aberrations, Assay Code: HOC+D, Dose Response: With dose response, Evaluation Type: Evaluation A (Pre-1980)",active; positive
same,mutagenic call,"Species/Cell Type: Vicia faba, Assay Type: Chromosome aberrations, Assay Code: VIC+, Evaluation Type: Evaluation A (Pre-1980)",active; positive
CC(=O)Nc1ccc([C@@H]2O[C@H]2c2ccccc2)cc1,mutagenic call,[10],no conclusion
CC=Cc1ccccc1O,mutagenic call,"Species/Cell Type: Human lymphocytes, Assay Type: Sister-chromatid exchange (SCE) in vitro, Assay Code: SCL+D, Dose Response: With dose response, Evaluation Type: Evaluation B (Post-1980)",active; positive
same,mutagenic call,"Species/Cell Type: Human, Assay Type: Sister-chromatid exchange (SCE) in vitro, Assay Code: SC1+D, Dose Response: With dose response, Evaluation Type: Evaluation B (Post-1980)",active; positive
[2H]O[2H],mutagenic call,"Species/Cell Type: Drosophila melanogaster, Sex: Male, Assay Type: Heritable translocation test, chromosome aberrations, Assay Code: DHTT, Evaluation Type: Evaluation A (Pre-1980)",no conclusion
O=C(CCN1CCCC1)c1ccc2c(c1)OCO2,mutagenic call,[6],inactive; negative
O=C1c2ccccc2NC(c2ccc([N+](=O)[O-])o2)N1O (configuration not stated),mutagenic call,"Species/Cell Type: Mammalian polychromatic erythrocytes, Assay Type: Micronucleus test, chromosome aberrations, Assay Code: MNT-, Evaluation Type: Evaluation B (Post-1980)",inactive; negative
O=NN1CCC[C@H]1c1cccnc1,call,[5],active; positive
same,mutagenic call,"Species/Cell Type: Rat primary hepatocytes, Assay Type: Unscheduled DNA synthesis (UDS) in vitro, DNA effects, Assay Code: UDP+, Evaluation Type: Evaluation A (Pre-1980)",active; positive
Cc1c2ccccc2cc2c3c(ccc12)C(O)C(O)C=C3 (configuration not stated),mutagenic call,"Species/Cell Type: Mouse prostate cells, Assay Type: Cell transformation, Assay Code: CTM+, Evaluation Type: Evaluation A (Pre-1980)",active; positive
same,mutagenic call,"Species/Cell Type: Nonhuman, Assay Type: Sister-chromatid exchange (SCE) in vitro, Assay Code: SC2+D, Dose Response: With dose response, Evaluation Type: Evaluation A (Pre-1980)",active; positive
same,mutagenic call,"Species/Cell Type: Salmonella typhimurium (one or more of the five standard strains: TA98, TA100, TA1535, TA1537, and TA1538), Assay Type: Histidine reverse gene mutation, Ames assay, Assay Code: SAL+*, Activation: With metabolic activation, Evaluation Type: Evaluation A (Pre-1980)",active; positive
[N-]=[N+]=CC(=O)CCCCC(=O)C=[N+]=[N-],mutagenic call,"Species/Cell Type: Allium cepa, Assay Type: Chromosome aberrations, Assay Code: ALC-, Evaluation Type: Evaluation A (Pre-1980)",inactive; negative
same,mutagenic call,"Species/Cell Type: Aspergillus nidulans, Assay Type: Reverse gene mutation, Assay Code: ASRT, Evaluation Type: Evaluation A (Pre-1980)",no conclusion
same,mutagenic call,"Species/Cell Type: Hordeum vulgare (barley), Assay Type: Gene mutation, Assay Code: HOM+, Evaluation Type: Evaluation A (Pre-1980)",active; positive
CCSCCSP(=S)(OC)OC,mutagenic call,[4],active; positive
c1c(N2CC2)nc(N2CC2)nc1N1CC1,mutagenic call,"Species/Cell Type: Aspergillus nidulans, Assay Type: Reverse gene mutation, Assay Code: ASR+, Evaluation Type: Evaluation A (Pre-1980)",active; positive
O=C(NO)c1cc2ccccc2[nH]1,mutagenic call,[1],active; positive
C/C=C/C=C/C(=O)O,mutagenic call,"Species/Cell Type: Nonhuman, Assay Type: Sister-chromatid exchange (SCE) in vitro, Assay Code: SC2T, Evaluation Type: Evaluation A (Pre-1980)",no conclusion
[Cl][Ag],mutagenic call,[9],inactive; negative

# Source: PubChem BioAssay AID1259408 (Genetic Toxicology Data Bank (GENE-TOX), 2018)
